{
  "source": "patent US11173140B2",
  "about": "“Dosing regimens of PKC activators” (COGNITIVE RESEARCH ENTERPRISES, INC., priority 2015, dated 2021)",
  "tested_on": "advanced AD patients",
  "experiment": "Compassionate use study: cognitive function and behavior (MMSE, ADL-siv)",
  "assay_type": "in vivo, human",
  "procedure": "FIG. 1 illustrates, inter alia, the level of PKCε in the blood of a human subject receiving 25 μg/m^2 of bryostatin as a single weekly dose for three consecutive weeks followed by cessation of dosing for one week and then two additional weeks of dosing at 25 μg/m^2.\nFIG. 1 illustrates early results of a compassionate use (CU) study involving human advanced AD patients. […] The administration comprised three consecutive weeks of dosing followed by cessation for one week and then two additional weeks of dosing. Standard psychometric tests were used to measure cognitive functions and behaviors. The study also evaluated the relationship between the level of bryostatin's target, PKC epsilon, in the blood and the cognitive measurements.\nObserved improvements included restored speech and word recognition, restored swallowing, lowered or prevented hallucinations, and improved complex motor functions. […] For example, the observed behavioral improvements included restoration of speech and word recognition, restoration of swallowing, disappearance of hallucinations, return of complex motor activity, including swimming, billiards, conversational interactions, and orientation in time and space.\nThe decline closely tracked the decline in PCK-ε levels, as illustrated in FIG. 1. The observed decline was due to a well-known phenomenon that follows PKC activation called “downregulation”. Sustained clinical improvements in these patients with advanced AD were mitigated by the downregulation of the bryostatin target, PKC-ε. From these preliminary observations the inventors hypothesized that an intermittent dosing regimen of bryostatin was more suitable for maintaining cognitive benefits in AD patients.",
  "key": {"[1]": {"conditions": "advanced AD patients, weekly dose of 25 μg/m^2, three consecutive weeks"}},
  "data": [
    {"molecule": "CCC/C=C/C=C/C(=O)O[C@H]1/C(=C/C(=O)OC)C[C@H]2C[C@H]([C@@H](C)O)OC(=O)C[C@H](O)C[C@@H]3C[C@H](OC(C)=O)C(C)(C)[C@](O)(C[C@@H]4C/C(=C/C(=O)OC)C[C@H](/C=C/C(C)(C)[C@]1(O)O2)O4)O3", "note": "[Bryostatin-1]", "values": [
      {"measurement": "maintenance of cognitive benefits", "setting": "additional bryostatin dosing in weeks 5, 6 and 8-13", "value": "failed to maintain the observed cognitive benefits"},
      {"measurement": "Activities of Daily Living-Severe Impairment Version (ADL-siv)", "setting": "[1]", "value": "improvements"},
      {"measurement": "Mini-Mental State Examination (MMSE) score", "setting": "[1]", "value": "improvements"}
    ]}
  ]
}
